The source made the active and inactive calls.
Tests used:
[1] = potency of ADAM10 substrate cleavage blockers – biochemical, QFRET, dose response (AID 743254);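 note: ADAM10 enzyme with the DM2 quenched FRET peptide as substrate; EDANS fluorescence gain as the protease cuts the substrate; inhibitor potency against ADAM10 proteolytic activity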
[2] = molecular target: T1, Disintegrin and metalloproteinase domain-containing protein 17 (Homo sapiens, UniProt P78536); test: inhibition of ADAM17 substrate cleavage – biochemical, quenched FRET substrate, counter-screen for ADAM10 exosite inhibitor project, dose response (AID 743253)
Prothrombin = Prothrombin (Bos taurus, UniProt P00735); test: thrombin protease inhibitors – biochemical, fluorescence polarization, uHTS hits, dose response (AID 602369); type: functional
[3] = molecular target: 72 kDa type IV collagenase (Homo sapiens, UniProt P08253); test: Dose Response validation of uHTS RPN11 inhibitor hits using a MMP-2 Fluorescence assay.; type: functional
cells [4] = type: functional, cell-based
[5] = molecular target: 26S proteasome non-ATPase regulatory subunit 14 (Homo sapiens, UniProt O00487); test: inhibition of proteasome subunit RPN11 – biochemical, fluorescence polarization, uHTS hits, confirmation (AID 602368); type: functional
cells [6] = type: functional, cell-based; remark: listed apart in the source
[7] = molecular target: T1, Disintegrin and metalloproteinase domain-containing protein 17; test: exosite inhibitors of ADAM17, dose response, biochemical (AID 743260)
[8] = RKO cell viability reduction, dose response, CellTiter-Glo luminescence (AID 1117322); type: functional
[9] = CellTiter-Glo luminescence survival assay, SW480 colon tumor line, concentration-response curve, half-maximal inhibitory concentration (AID 1117338); type: functional
[10] = Reduced DLD-1 viability, concentration-response, CellTiter-Glo luminescence (AID 1117352); type: functional
[11] = rise of 4N DNA cells, HeLa – IC50, dose response (AID 1117351); type: functional, cell-based
[12] = HCT116 cell viability decrease, GSK3B pretreatment – CellTiter-Glo, IC50, dose response (AID 1117339); type: functional; details: HCT-116
[13] = cytotoxicity toward HT-29 cells – cell-based, CellTiter-Glo luminescence, IC50, dose response (AID 1117330); type: functional
[14] = cytotoxicity toward Colo320 cells – cell-based, CellTiter-Glo luminescence, IC50, dose response (AID 1117334); type: functional; details: COLO 320
[15] = cytotoxicity toward HCT116 cells – cell-based, CellTiter-Glo luminescence, IC50, dose response (AID 1117332); type: functional; details: HCT-116
[16] = SNU-C1 cell viability reduction, dose response, CellTiter-Glo luminescence (AID 1117323); type: functional, cell-based
[17] = rise of 2N DNA cells, HeLa – IC50, dose response (AID 1117349); type: functional, cell-based
[18] = molecular target: T2, Mannose-6-phosphate isomerase (Homo sapiens, UniProt P34949); test: MPI inhibition at elevated mannose 6-phosphate – biochemical, fluorescence intensity, high mannose 6-phosphate, primary screen (AID 1220)
T2 sequence (P34949 whole entry): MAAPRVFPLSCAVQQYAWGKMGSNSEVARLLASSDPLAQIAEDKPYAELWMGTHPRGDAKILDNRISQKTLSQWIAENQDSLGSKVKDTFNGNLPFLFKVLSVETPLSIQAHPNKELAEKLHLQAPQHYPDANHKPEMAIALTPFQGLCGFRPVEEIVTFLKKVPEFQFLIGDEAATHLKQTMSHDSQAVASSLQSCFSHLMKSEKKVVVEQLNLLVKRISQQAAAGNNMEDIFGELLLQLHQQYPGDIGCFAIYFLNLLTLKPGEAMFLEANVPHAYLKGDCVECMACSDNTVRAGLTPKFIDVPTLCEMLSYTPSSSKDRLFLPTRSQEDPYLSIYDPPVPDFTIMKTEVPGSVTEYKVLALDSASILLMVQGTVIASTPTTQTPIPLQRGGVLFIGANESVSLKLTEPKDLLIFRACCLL

[19] = molecular target: T2, Mannose-6-phosphate isomerase; test: MPI enzyme activity inhibition – biochemical, fluorescence intensity, coupled assay, primary screen (AID 1209)

T1 sequence (P78536 whole entry, the tested form may be a part): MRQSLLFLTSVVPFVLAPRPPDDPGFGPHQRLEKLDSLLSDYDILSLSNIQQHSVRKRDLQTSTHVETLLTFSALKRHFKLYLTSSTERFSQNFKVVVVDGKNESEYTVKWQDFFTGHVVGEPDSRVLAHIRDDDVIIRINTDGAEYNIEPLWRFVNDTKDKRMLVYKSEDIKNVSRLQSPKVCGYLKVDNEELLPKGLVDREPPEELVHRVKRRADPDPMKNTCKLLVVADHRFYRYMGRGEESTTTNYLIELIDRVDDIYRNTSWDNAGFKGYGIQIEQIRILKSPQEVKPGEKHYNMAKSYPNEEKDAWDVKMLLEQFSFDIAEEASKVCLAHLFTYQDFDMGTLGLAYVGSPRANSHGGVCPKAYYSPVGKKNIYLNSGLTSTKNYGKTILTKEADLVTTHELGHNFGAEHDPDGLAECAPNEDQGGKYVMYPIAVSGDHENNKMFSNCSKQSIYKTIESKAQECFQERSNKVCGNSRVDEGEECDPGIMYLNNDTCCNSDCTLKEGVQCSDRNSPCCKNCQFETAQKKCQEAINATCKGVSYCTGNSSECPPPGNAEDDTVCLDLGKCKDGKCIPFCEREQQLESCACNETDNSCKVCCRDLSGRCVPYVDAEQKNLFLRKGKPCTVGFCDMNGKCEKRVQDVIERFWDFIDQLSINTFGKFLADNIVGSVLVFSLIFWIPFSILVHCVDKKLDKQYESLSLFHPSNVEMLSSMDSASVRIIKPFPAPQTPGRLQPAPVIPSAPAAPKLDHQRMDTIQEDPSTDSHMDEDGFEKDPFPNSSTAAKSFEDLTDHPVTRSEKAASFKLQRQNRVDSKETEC
Chain of 26S proteasome non-ATPase regulatory subunit 14 (O00487 whole entry): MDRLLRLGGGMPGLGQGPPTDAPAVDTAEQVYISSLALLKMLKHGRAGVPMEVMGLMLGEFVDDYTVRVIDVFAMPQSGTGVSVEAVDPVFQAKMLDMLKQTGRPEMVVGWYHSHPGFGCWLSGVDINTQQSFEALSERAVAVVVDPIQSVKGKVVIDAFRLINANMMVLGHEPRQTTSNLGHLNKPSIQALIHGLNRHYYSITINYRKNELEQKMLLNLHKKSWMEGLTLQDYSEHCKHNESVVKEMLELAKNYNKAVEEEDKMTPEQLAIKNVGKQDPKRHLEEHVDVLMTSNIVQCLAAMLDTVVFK
Chain of 72 kDa type IV collagenase (P08253 whole entry): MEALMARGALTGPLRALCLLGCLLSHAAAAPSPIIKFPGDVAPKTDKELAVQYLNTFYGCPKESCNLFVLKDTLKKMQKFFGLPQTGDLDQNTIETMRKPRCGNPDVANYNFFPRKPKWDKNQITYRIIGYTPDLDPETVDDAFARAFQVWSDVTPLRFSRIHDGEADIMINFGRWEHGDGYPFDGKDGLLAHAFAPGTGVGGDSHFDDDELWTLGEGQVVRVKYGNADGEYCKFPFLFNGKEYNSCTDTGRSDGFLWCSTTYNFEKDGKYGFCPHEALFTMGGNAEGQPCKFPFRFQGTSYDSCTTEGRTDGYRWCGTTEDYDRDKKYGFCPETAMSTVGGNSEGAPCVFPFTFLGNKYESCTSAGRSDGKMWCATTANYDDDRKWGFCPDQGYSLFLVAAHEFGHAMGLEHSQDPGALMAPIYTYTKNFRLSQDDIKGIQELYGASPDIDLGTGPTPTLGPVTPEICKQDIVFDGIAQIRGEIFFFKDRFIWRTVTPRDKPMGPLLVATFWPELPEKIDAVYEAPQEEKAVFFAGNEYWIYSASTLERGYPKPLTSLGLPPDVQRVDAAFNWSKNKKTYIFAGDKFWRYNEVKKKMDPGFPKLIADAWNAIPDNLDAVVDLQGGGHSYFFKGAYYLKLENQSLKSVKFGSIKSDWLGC

## C=CC[C@@H](CC(=O)N(CCO)Cc1ccccc1)C(=O)N[C@H](COC(=O)[C@@H](CC=C)Cc1ccc(F)cc1)Cc1c[nH]c2ccccc12
[1]
  IC50: > 69.5 µM (inactive)
[2]
  IC50: > 69.5 µM (inactive)

## COCC/N=c1\scc(-c2cc(OC)c(OC)c(OC)c2)n1/N=C/c1c(C)[nH]c2ccccc12
Prothrombin
  IC50: 57.9 µM (active)
[3]
  IC50: > 100 µM (inactive)
Cells [4]
  EC50: > 350 µM (not active)
[1]
  IC50: > 69.5 µM (inactive)
[5]
  IC50: 76.9 µM (active)
Cells [6]
  EC50: > 350 µM (not active)
[2]
  IC50: > 69.5 µM (inactive)
[7]
  IC50: > 69.5 µM (inactive)

## O[C@@H](CNC[C@H](O)[C@H]1CCc2cc(F)ccc2O1)[C@@H]1CCc2cc(F)ccc2O1
[8]
  IC50: 3.28 µM (active)
[9]
  IC50: 3.6 µM (active)
[10]
  IC50: 15.3 µM (inactive)
[11]
  IC50: > 10 µM (inactive)
[12]
  IC50: 2.4 µM (active)
[13]
  IC50: 4.5 µM (active)
[14]
  IC50: > 20 µM (inactive)
[15]
  IC50: 6.48 µM (inactive)
[16]
  IC50: 5.09 µM (inactive)
[17]
  IC50: > 10 µM (inactive)

## CCc1ccc(/C=c2\s/c(=C\C(=O)C(C)(C)C)[nH]c2=O)cc1
[1]
  IC50: > 69.5 µM (inactive)
[2]
  IC50: > 69.5 µM (inactive)

## CCOc1ccc(/C=N/c2cccc3ncccc23)cc1
[18]
  IC50: > 50 µM (not active)
[19]
  IC50: > 50 µM (not active)

## Cc1ccccc1C(=O)Nc1ccc(C(=O)N2CCCC(N(C)C)c3ccccc32)cc1 (stereo unspecified) [MOZAVAPTAN]
[11]
  IC50: > 10 µM (inactive)
[17]
  IC50: > 10 µM (inactive)
